Laboratory results from patent EP2406206B1, “TETRAHYDRONAPHTHALEN-2-OL DERIVATIVES” (MSD Oss B.V., priority 2009, dated 2010).

Columns and labels:
[1] = biological target: human estrogen receptor β receptor (hERβ) (Homo sapiens, UniProt Q92731); assay: ERβ transactivation bioassay in recombinant CHO cells (rat oxytocin promoter, luciferase reporter); type: cell-based; settings: for ERβ/ERα ratio: ERβ agonistic selectivity over ERα, transactivation data; for EC50: transactivation of luciferase via hERβ in CHO cells, read-out: ERβ agonistic EC50; for ERβ eudismic ratio: ratio of the activities of the eutomer and the distomer on ERβ
Experimental: The estrogenic and antiestrogenic activity of compounds was determined in an in vitro bioassay with recombinant Chinese hamster ovary (CHO) cells stably co-transfected with the human estrogen receptor α (hERα) or β receptor (hERβ), the rat oxytocin promoter (RO) and the luciferase reporter gene (LUC). The estrogenic activity of a test compound to stimulate the transactivation of the enzyme luciferase mediated via the estrogen receptors hERα or hERβ is expressed in nM. The assay was performed as described by De Gooyer et al., Steroids 68 (2003), 21-30. Table 7. ERβ and ERα transactivation data

[2] = metabolic stability in human hepatocytes; type: in vitro ADME; settings: cryopreserved human hepatocytes in suspension, tetrahydronaphthalen-2-ol, 37°C, sampled 0-120 min, LC-MS/MS, read-out: Human hepatocyte T1/2
Experimental: A number of compounds 9, 11 and 12 were tested on metabolic stability in human hepatocytes. The hepatic stability was compared to corresponding chroman compounds 25, 26 or 27 (see structures below).
Test compounds were diluted to 3 µM in incubation medium. Then 40 µl of the 3 µM test compounds was pipetted into a 96 well microtiter plate (flat bottom). Hepatocytes (stored at -140 °C) were thawed in a 37°C water bath. The cells were resuspended into pre-warmed thawing medium and were centrifuged for 5 minutes at 50g at room temperature. The supernatant was discarded and the remaining cell pellet was resuspended in warm incubation medium and diluted to 7.5 E5 cells/ml. Then 80 µl of the cell suspension was added to each well of the 96 well microtiter plate containing the test compounds. The resulting mixture was incubated at 37°C and was sampled at t=0, 5, 30, 60, and 120 min. The samples were analyzed by LC-MS/MS to determine the content of unchanged test compound. Based on the rate of reduction of the content of test compound over time, the half-live (T1/2) was calculated. Metabolic stability in human hepatocytes

Chain of human estrogen receptor β receptor (hERβ) (Q92731 whole entry): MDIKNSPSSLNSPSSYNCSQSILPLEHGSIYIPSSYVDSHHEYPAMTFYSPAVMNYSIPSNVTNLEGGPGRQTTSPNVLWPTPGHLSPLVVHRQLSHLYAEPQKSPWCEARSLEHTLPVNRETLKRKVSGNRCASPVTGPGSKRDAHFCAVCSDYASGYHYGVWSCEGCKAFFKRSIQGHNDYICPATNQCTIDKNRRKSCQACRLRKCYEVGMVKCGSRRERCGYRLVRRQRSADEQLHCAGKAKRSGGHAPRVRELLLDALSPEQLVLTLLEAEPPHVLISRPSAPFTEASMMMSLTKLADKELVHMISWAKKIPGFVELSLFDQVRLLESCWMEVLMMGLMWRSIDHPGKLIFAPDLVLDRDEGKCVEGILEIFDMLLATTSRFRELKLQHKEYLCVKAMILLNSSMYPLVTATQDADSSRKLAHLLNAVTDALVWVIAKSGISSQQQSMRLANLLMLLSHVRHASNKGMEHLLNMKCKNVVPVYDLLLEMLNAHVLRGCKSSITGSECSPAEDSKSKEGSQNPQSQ

| ERβ/ERα ratio [1] | EC50 [1] [nM] | half-life at 1 µM [2] [h] | ERβ eudismic ratio [1] | Structure (SMILES) |
| --- | --- | --- | --- | --- |
| 193 | 0.45 | – | – | CC1C(c2ccc(O)cc2)Cc2ccc(O)cc2C1Cc1ccccc1F (racemic) [Compound 9a, 8-(2-fluorobenzyl)-6-(4-hydroxyphenyl)-7-methyl-5,6,7,8-tetrahydronaphthalen-2-ol] |
| 77 | 0.35 | 1.17 | – | CCC1C(c2ccc(O)cc2)Cc2ccc(O)cc2C1Cc1ccccc1F (racemic) [Compound 9b, 8-(2-fluorobenzyl)-6-(4-hydroxyphenyl)-7-ethyl-5,6,7,8-tetrahydronaphthalen-2-ol] |
| 33 | 0.4 | – | – | CCCC1C(c2ccc(O)cc2)Cc2ccc(O)cc2C1Cc1ccccc1F (racemic) [Compound 9c, 8-(2-fluorobenzyl)-6-(4-hydroxyphenyl)-7-propyl-5,6,7,8-tetrahydronaphthalen-2-ol] |
| 51 | 0.68 | – | – | CC1C(c2ccc(O)cc2)Cc2ccc(O)cc2C1Cc1ccccc1 (racemic) [Compound 9d, 8-benzyl-6-(4-hydroxyphenyl)-7-methyl-5,6,7,8-tetrahydronaphthalen-2-ol] |
| 18 | 0.42 | – | – | CCC1C(c2ccc(O)cc2)Cc2ccc(O)cc2C1Cc1ccccc1 (racemic) [Compound 9e, 8-benzyl-7-ethyl-6-(4-hydroxyphenyl)-5,6,7,8-tetrahydronaphthalen-2-ol] |
| >33 | 3 | – | – | CC1C(c2ccc(O)cc2)Cc2ccc(O)cc2C1Cc1cccc(F)c1 (racemic) [Compound 9f, 8-(3-fluorobenzyl)-6-(4-hydroxyphenyl)-7-methyl-5,6,7,8-tetrahydronaphthalen-2-ol] |
| >43 | 2.3 | – | – | CC1C(c2ccc(O)cc2)Cc2ccc(O)cc2C1Cc1ccc(F)cc1 (racemic) [Compound 9g, 8-(4-fluorobenzyl)-6-(4-hydroxyphenyl)-7-methyl-5,6,7,8-tetrahydronaphthalen-2-ol] |
| >167 | 0.6 | – | – | CC1C(c2ccc(O)cc2)Cc2ccc(O)cc2C1Cc1cc(F)ccc1F (racemic) [Compound 9h, 8-(2,5-difluorobenzyl)-6-(4-hydroxyphenyl)-7-methyl-5,6,7,8-tetrahydronaphthalen-2-ol] |
| >102 | 0.98 | – | – | CC1C(c2ccc(O)cc2)Cc2ccc(O)cc2C1Cc1c(F)cccc1F (racemic) [Compound 9i, 8-(2,6-difluorobenzyl)-6-(4-hydroxyphenyl)-7-methyl-5,6,7,8-tetrahydronaphthalen-2-ol] |
| 605 | 0.56 | 0.623 | – | CC1C(c2ccc(O)cc2)Cc2ccc(O)cc2C1Cc1ccccc1C#N (racemic) [Compound 9j, 2-((7-hydroxy-3-(4-hydroxyphenyl)-2-methyl-1,2,3,4-tetrahydronaphthalen-1-yl)methyl)benzonitrile] |
| >204 | 0.49 | – | – | CCC1C(c2ccc(O)cc2)Cc2ccc(O)cc2C1Cc1ccccc1C#N (racemic) [Compound 9k, 2-((2-ethyl-7-hydroxy-3-(4-hydroxyphenyl)-1,2,3,4-tetrahydronaphthalen-1-yl)methyl)benzonitrile] |
| 339 | 0.33 | – | – | CC1C(c2ccc(O)cc2)Cc2ccc(O)cc2C1Cc1ccccc1Cl (racemic) [Compound 9l, 8-(2-chlorobenzyl)-6-(4-hydroxyphenyl)-7-methyl-5,6,7,8-tetrahydronaphthalen-2-ol] |
| 2 | 31 | – | – | CCC1C(c2ccc(O)cc2)Cc2ccc(O)cc2C1Cc1ccc(O)cc1 (racemic) [Compound 9m, 7-ethyl-8-(4-hydroxybenzyl)-6-(4-hydroxyphenyl)-5,6,7,8-tetrahydronaphthalen-2-ol] |
| 42 | 0.17 | 1.22 | – | CCC1C(c2ccc(O)cc2F)Cc2ccc(O)cc2C1Cc1ccccc1F (racemic) [Compound 9o, 7-ethyl-6-(2-fluoro-4-hydroxyphenyl)-8-(2-fluorobenzyl)-5,6,7,8-tetrahydronaphthalen-2-ol] |
| >333 | 0.3 | > 2 | – | CC1C(c2ccc(O)cc2F)Cc2ccc(O)cc2C1Cc1ccccc1F (racemic) [Compound 9p, 6-(2-fluoro-4-hydroxyphenyl)-8-(2-fluorobenzyl)-7-methyl-5,6,7,8-tetrahydronaphthalen-2-ol] |
| >83 | 1.2 | 0.965 | – | Cc1cc(C2Cc3ccc(O)cc3C(Cc3ccccc3F)C2C)ccc1O (racemic) [Compound 9r, 8-(2-fluorobenzyl)-6-(4-hydroxy-3-methylphenyl)-7-methyl-5,6,7,8-tetrahydronaphthalen-2-ol] |
| >21 | 4.7 | 1.61 | – | CC1C(c2ccc(O)cc2)Cc2ccc(O)c(F)c2C1Cc1ccccc1F (racemic) [Compound 9s, 1-fluoro-8-(2-fluorobenzyl)-5,6,7,8-tetrahydro-6-(4-hydroxyphenyl)-7-methylnaphthalen-2-ol] |
| >63 | 1.6 | 1.16 | – | CCC1C(c2ccc(O)cc2)Cc2ccc(O)cc2C1Cc1ccccc1C (racemic) [Compound 9v, 7-ethyl-6-(4-hydroxyphenyl)-8-(2-methylbenzyl)-5,6,7,8-tetrahydronaphthalen-2-ol] |
| 12 | 0.91 | – | – | CCC1C(c2ccc(O)cc2)Cc2ccc(O)cc2C1Cc1ccc(F)cc1 (racemic) [Compound 9w, 7-ethyl-8-(4-fluorobenzyl)-6-(4-hydroxyphenyl)-5,6,7,8-tetrahydronaphthalen-2-ol] |
| >8 | 12 | 1.83 | – | CC1C(c2ccc(O)cc2)Cc2ccc(O)c(F)c2C1Cc1c(F)cccc1F (racemic) [Compound 9y, 8-(2,6-difluorobenzyl)-1-fluoro-5,6,7,8-tetrahydro-6-(4-hydroxyphenyl)-7-methyl-naphthalen-2-ol] |
| >213 | 0.47 | – | >212 | C[C@H]1[C@@H](c2ccc(O)cc2)Cc2ccc(O)cc2[C@H]1Cc1c(F)cccc1F (single isomer, unassigned) [Compound 11i] |
| >714 | 0.14 | 0.49 | 143 | C[C@H]1[C@@H](c2ccc(O)cc2)Cc2ccc(O)cc2[C@H]1Cc1ccccc1C#N (single isomer, unassigned) [Compound 11j] |
| – | – | 1.11 | – | C[C@@H]1[C@H](c2ccc(O)cc2)Cc2ccc(O)cc2[C@@H]1Cc1ccccc1F (single isomer, unassigned) [Compound 12a] |
| – | – | 1.12 | – | C[C@@H]1[C@H](c2ccc(O)cc2)Cc2ccc(O)cc2[C@@H]1Cc1c(F)cccc1F (single isomer, unassigned) [Compound 12i] |
| >40 | 2.5 | – | – | COc1ccccc1CC1c2cc(O)ccc2CC(c2ccc(O)cc2)C1C (centres unmarked) [Compound 8n, 6-(4-hydroxyphenyl)-8-(2-methoxybenzyl)-7-methyl-5,6,7,8-tetrahydronaphthalen-2-ol] |
